The text below walks through data of US20240376120A1, “CAMPTOTHECIN COMPOUND, PREPARATION METHOD THEREFOR AND USE THEREOF” (priority 2021, published 2024).

For orientation: Papp A→B means how fast a substance crosses the layer from the apical side.

pIC50: −log10 of the molar value. Where a name gives a salt, the structure may show the parent alone.

In one data set the test system is MDA-MB-435s cells (human melanoma cells). In words: MDA-MB-435s cell proliferation inhibitory assay (CellTiter-Glo). Type of data set: cell-based. The note with it: Homo sapiens, MDA-MB-435S, 72 h, read-out: Proliferation inhibition IC50. As for the experimental part:
(§1) • 1). […] Resuspend an appropriate amount of cell suspension to 3000 cells/100 μL according to the count, mixed well and then put the corresponding number of cells into a 96-well plate by pipette. • 3). Each hole of the edge was sealed with 100 μL DPBS and put into an incubator for culture. • 4). Day 1 drug addition: Prepare the storage solution of the compound to be tested 1 hour in advance. 24 h after plating, the culture medium was gradiently diluted to a concentration twice the final concentration of each group. Take out the plated cells from the incubator and add 100 μL of the corresponding 2-fold concentration medium to each well by pipette. • 5). Day 1 detected: Take out an appropriate amount of CTG 1 h in advance and the plate was allowed to equilibrate at room temperature for 30 min. 100 μL of CTG was added to each well and shaken for 5 mins, and then standed in the dark for 5 mins, the luminescence value was detected by ELISA. • 6). Day 4 detection: Take an appropriate amount of CTG 1 h in advance and rewarm it at room temperature in the dark. At the same time, take out the plate to be tested from the incubator and leave it to equilibrate at room temperature for 30 minutes; 72 h after adding the drug, 100 μL of culture medium was sucked out with pipette carefully from each cell well, and 100 μL of CTG was added. The mixture was shaken for 5 min, and after equilibration in the dark for 5 min, the luminescence value was detected with ELISA. • 7). Analyze data and write detailed experimental records.
Collect data and convert it into survival rate: Inhibition rate (%)=(100−(OD value of compound−OD value on the first day)/(OD value of control well-OD value on the first day))×100%
(§2) Input the compound into graphpad prism to obtain the corresponding IC50 value.
(In general: Cellular ATP, detected with luciferase, serves as a proxy for viable cell number.)
As to `CC[C@@]1(O)C(=O)OCc2c1cc1n(c2=O)Cc2c-1nc1cc(F)c(C)cc1c2[C@@H](C)N1CCNCC1` [Example 41b], the pIC50 was 8.41.

As to `CC[C@@]1(O)C(=O)OCc2c1cc1n(c2=O)Cc2c-1nc1cc(F)c(C)cc1c2[C@H](C)N1CCN(C)CC1` [Example 42a], the pIC50 is 8.49.

With `CC[C@@]1(O)C(=O)OCc2c1cc1n(c2=O)Cc2c-1nc1cc(F)c(C)cc1c2[C@@H](C)N1CCN(C)CC1` [Example 42b], the pIC50 was 8.59.

Still in this data set, the particulars now being: Homo sapiens; MDA-MB-435s cells, 72 h after adding the drug, Table 3; read-out: Proliferation inhibition IC50.
On to `CC[C@@]1(O)C(=O)OCc2c1cc1n(c2=O)Cc2c-1nc1cc(F)c(C)cc1c2CN` [Compound A, reference compound], for which the pIC50 was 7.67.

As for `[2H]C([2H])([2H])[C@H](N)c1c2c(nc3cc(F)c(C)cc13)-c1cc3c(c(=O)n1C2)COC(=O)[C@]3(O)CC` [Example 43a], the pIC50 is 8.48.

Consider `[2H]C([2H])([2H])[C@@H](N)c1c2c(nc3cc(F)c(C)cc13)-c1cc3c(c(=O)n1C2)COC(=O)[C@]3(O)CC` [Example 43b], for which the pIC50 is 9.19.

Still in this data set, the particulars now being: Homo sapiens; MDA-MB-435s cells, comparative Table 4; read-out: MDA-MB-435s Proliferation inhibition IC50.
For the compound `CC[C@@]1(O)C(=O)OCc2c1cc1n(c2=O)Cc2c-1nc1cc(F)c(C)cc1c2CN` [Compound A, reference compound], the pIC50 was 7.67.

The data set is the same for the next values; noted with them: MDA-MB-435s cells, 72 h after adding the drug, Table 3; read-out: Proliferation inhibition IC50.
In the case of `CCc1c2c(nc3ccc(O)cc13)-c1cc3c(c(=O)n1C2)COC(=O)[C@]3(O)CC` [SN38, reference compound], the pIC50 is 8.16.

Another data set concerns Caco-2 cells (human colorectal adenocarcinoma cells). In words: Caco-2 cell membrane permeability assay. Conditions: Caco-2 monolayer, apical to basolateral, 100 μg/mL, 180 min. (Caco-2 cells form a polarised layer with tight junctions and transporters.)
Experimental: (§3) Day 0 plated: After digesting the target cells in the logarithmic growth phase, make a single cell suspension and count. • 2). Took out the corresponding number of transwell chambers and placed them in a 24-well plate, added 200 μL PBS to the upper chamber, incubated for 10 mins, and removed the PBS from the upper chamber by pipette. • 3). According to the count, took an appropriate amount of cell suspension and resuspended it to 5000 cells/200 μL, mixed well and added it to the upper chamber of the transwell, and added 600 μL of complete culture medium to the lower chamber. • 4). medium exchanged on DAY1: The upper chamber and the lower chamber were exchanged with complete culture medium containing 0.1 mg/mL ascorbic acid for 9 days continuously, and the resistance value of membrane expansion was measured. […] Collected the liquid in the upper chamber and the lower chamber for detection. • 7). Calculated Papp according to the formula “Papp=dQ/(dt×A×C0)”. dQ/dt was the transport amount of drugs per unit time, which was the slope of the linear regression of cumulative drug release amount Q versus time t. A was the bottom area of the Transwell orifice plate membrane, and the bottom area was 0.33 cm^2 of 24-well plate in this experiment. Co was the initial concentration of drugs in the upper chamber (μg mL-1).
For the compound `CCc1c2c(nc3ccc(O)cc13)-c1cc3c(c(=O)n1C2)COC(=O)[C@]3(O)CC` [SN38, reference compound], the “Permeability Coefficient (Papp 10^−6 cm/s) A→B” value is given as 46.8 10^−6 cm/s.

Tested on in a further data set: not listed separately
In words: Caco-2 cell membrane permeability assay. Conditions: human, Caco-2.
Experimental: as §3
In turn, `COCCc1ccc(OCC(O)CNC(C)C)cc1` (stereo not drawn) [Metoprolol Tartrate] gave a Papp A→B at 180 min, 100 μg/mL of 193 ×10⁻⁶ cm/s.

A further data set has as its system MDA-MB-231 cells (human breast cancer cells). The data set is described as follows: MDA-MB-231 cell proliferation inhibitory assay (CellTiter-Glo). Type of data set: cell-based. Conditions: Homo sapiens, MDA-MB-231, 72 h, read-out: Proliferation inhibition IC50. The procedure:
as §1, §2
In the case of `CC[C@@]1(O)C(=O)OCc2c1cc1n(c2=O)Cc2c-1nc1cc(F)c(C)cc1c2[C@@H](C)N1CCNCC1` [Example 41b], the pIC50 was 7.52.

As for `CC[C@@]1(O)C(=O)OCc2c1cc1n(c2=O)Cc2c-1nc1cc(F)c(C)cc1c2[C@H](C)N1CCN(C)CC1` [Example 42a], the pIC50 was 6.90.

On to `CC[C@@]1(O)C(=O)OCc2c1cc1n(c2=O)Cc2c-1nc1cc(F)c(C)cc1c2[C@@H](C)N1CCN(C)CC1` [Example 42b], for which the pIC50 was 7.12.

Staying with this data set, now noted: Homo sapiens; MDA-MB-231 cells, 72 h after adding the drug, Table 2; read-out: Proliferation inhibition IC50.
Turning to `CC[C@@]1(O)C(=O)OCc2c1cc1n(c2=O)Cc2c-1nc1cc(F)c(C)cc1c2CN` [Compound A, reference compound], the pIC50 is 6.58.

For `[2H]C([2H])([2H])[C@H](N)c1c2c(nc3cc(F)c(C)cc13)-c1cc3c(c(=O)n1C2)COC(=O)[C@]3(O)CC` [Example 43a], the pIC50 is 7.77.

Consider `[2H]C([2H])([2H])[C@@H](N)c1c2c(nc3cc(F)c(C)cc13)-c1cc3c(c(=O)n1C2)COC(=O)[C@]3(O)CC` [Example 43b], for which the pIC50 was 8.10.

The same data set, now with this note: Homo sapiens; MDA-MB-231 cells, comparative Table 4; read-out: MDA-MB-231 Proliferation inhibition IC50.
Consider `CC[C@@]1(O)C(=O)OCc2c1cc1n(c2=O)Cc2c-1nc1cc(F)c(C)cc1c2CN` [Compound A, reference compound], for which the pIC50 was 6.58.

The data set is the same for the next values; noted with them: MDA-MB-231 cells, 72 h after adding the drug, Table 2; read-out: Proliferation inhibition IC50.
With `CCc1c2c(nc3ccc(O)cc13)-c1cc3c(c(=O)n1C2)COC(=O)[C@]3(O)CC` [SN38, reference compound], the pIC50 is 6.91.

A further data set concerns MCF-7 cells (human breast cancer cells). In words: MCF-7 cell proliferation inhibitory assay (CellTiter-Glo). Conditions: Homo sapiens, MCF7, 72 h, read-out: Proliferation inhibition IC50. Type of data set: cell-based. As for the experimental part: • 1). […] Resuspend an appropriate amount of cell suspension to 4000 cells/100 μL according to the count, mixed well and then put the corresponding number of cells into a 96-well plate by pipette. • 3). Each hole of the edge was sealed with 100 μL DPBS and put into an incubator for culture. • 4). Day 1 drug addition: Prepare the storage solution of the compound to be tested 1 hour in advance. 24 h after plating, the culture medium was gradiently diluted to a concentration twice the final concentration of each group. Take out the plated cells from the incubator and add 100 μL of the corresponding 2-fold concentration medium to each well by pipette.
Day 1 detected: Take out the plate to be tested and an appropriate amount of CTG in advance and rewarm it at room temperature in the dark. 50 μL of CTG was added to each well at 24 h. Shake with the oscillator for 5 minutes, and after balancing in the dark for 5 minutes, detect the luminescence value with a microplate reader; The mixture was shaken for 5 min, and after equilibration in the dark for 5 min, the luminescence value was detected with ELISA. • 6). Day 4 detection: Take an appropriate amount of CTG 1 h in advance and rewarm it at room temperature in the dark. At the same time, take out the plate to be tested from the incubator and leave it to equilibrate at room temperature for 30 minutes; 72 h after adding the drug, 100 μL of culture medium was sucked out with pipette carefully from each cell well, and 50 μL of CTG was added. The mixture was shaken for 5 min, and after equilibration in the dark for 5 min, the luminescence value was detected with ELISA analyzer. • 7). Data analysis and processed.
Collect data and convert it into survival rate: Inhibition rate (%)=(100−(OD value of compound-OD value on the first day)/(OD value of control well-OD value on the first day))×100%
as §2
`CC[C@@]1(O)C(=O)OCc2c1cc1n(c2=O)Cc2c-1nc1cc(F)c(C)cc1c2[C@@H](C)N1CCNCC1` [Example 41b]: the pIC50 is 7.71.

As to `CC[C@@]1(O)C(=O)OCc2c1cc1n(c2=O)Cc2c-1nc1cc(F)c(C)cc1c2[C@H](C)N1CCN(C)CC1` [Example 42a], the pIC50 is 7.84.

In the case of `CC[C@@]1(O)C(=O)OCc2c1cc1n(c2=O)Cc2c-1nc1cc(F)c(C)cc1c2[C@@H](C)N1CCN(C)CC1` [Example 42b], the pIC50 is 8.18.

Staying with this data set, now noted: Homo sapiens, MCF7; MCF-7 cells, 72 h after adding the drug, Table 1; read-out: Proliferation inhibition IC50.
In the case of `CC[C@@]1(O)C(=O)OCc2c1cc1n(c2=O)Cc2c-1nc1cc(F)c(C)cc1c2CN` [Compound A, reference compound], the pIC50 was 7.82.

Consider `[2H]C([2H])([2H])[C@H](N)c1c2c(nc3cc(F)c(C)cc13)-c1cc3c(c(=O)n1C2)COC(=O)[C@]3(O)CC` [Example 43a], for which the pIC50 was 8.29.

As for `[2H]C([2H])([2H])[C@@H](N)c1c2c(nc3cc(F)c(C)cc13)-c1cc3c(c(=O)n1C2)COC(=O)[C@]3(O)CC` [Example 43b], the pIC50 is 8.57.

The data set is the same for the next values; noted with them: Homo sapiens, MCF7; MCF-7 cells, comparative Table 4; read-out: MCF-7 Proliferation inhibition IC50.
Take `CC[C@@]1(O)C(=O)OCc2c1cc1n(c2=O)Cc2c-1nc1cc(F)c(C)cc1c2CN` [Compound A, reference compound]: the pIC50 was 7.82.

Still in this data set, the particulars now being: MCF-7 cells, 72 h after adding the drug, Table 1; read-out: Proliferation inhibition IC50.
Regarding `CCc1c2c(nc3ccc(O)cc13)-c1cc3c(c(=O)n1C2)COC(=O)[C@]3(O)CC` [SN38, reference compound], the pIC50 is 7.65.

Tested on in another data set: not listed separately
In words: in vitro. Conditions: human, Caco-2.
Experimental: as §3
For `CC[C@@]1(O)C(=O)OCc2c1cc1n(c2=O)Cc2c-1nc1cc(F)c(C)cc1c2CN` [Compound A, reference compound], the Papp A→B at 180 min, 100 μg/mL worked out at 68.8 ×10⁻⁶ cm/s.
